Experimental data as given in PubChem BioAssay (NCI).
“And” between values parts separate entries of the source, which are not always exact repeats. Equal entries are not always repeated.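 96-well plates; 48 h exposure; 5 concentrations. Endpoints by linear interpolation between flanking doses. Not reached: highest tested concentration assigned. Abbreviation: GI50, concentration required for 50% inhibition of growth. At the TGI there is no net growth.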

Key:
Test in all cases: growth of human tumour cells (NCI), 48 h
SK-MEL-2 melanoma = system: SK-MEL-2 melanoma
LXFL 529 NSCLC = system: LXFL 529 NSCLC
MOLT-4 leukemia = system: MOLT-4 leukemia
DLD-1 colon = system: DLD-1 colon
HOP-62 NSCLC = system: HOP-62 NSCLC
RPMI-8226 leukemia = system: RPMI-8226 leukemia
M19-MEL melanoma = system: M19-MEL melanoma
XF 498 CNS = system: XF 498 CNS
SNB-19 CNS = system: SNB-19 CNS
NCI-H226 lung = system: NCI-H226 lung

SMILES	TGI (SK-MEL-2 melanoma)	TGI (LXFL 529 NSCLC) [µM]	TGI (MOLT-4 leukemia) [µM]	TGI (DLD-1 colon) [µM]	TGI (HOP-62 NSCLC) [µM]	TGI (RPMI-8226 leukemia)	TGI (M19-MEL melanoma) [µM]	TGI (XF 498 CNS) [µM]	TGI (SNB-19 CNS) [µM]	TGI (NCI-H226 lung)	GI50 (SK-MEL-2 melanoma) [µM]	GI50 (HOP-62 NSCLC) [µM]	GI50 (SNB-19 CNS) [µM]	GI50 (NCI-H226 lung) [µM]	GI50 (LXFL 529 NSCLC) [µM]	GI50 (RPMI-8226 leukemia) [nM]	GI50 (DLD-1 colon) [µM]	GI50 (M19-MEL melanoma) [µM]	GI50 (XF 498 CNS) [µM]	GI50 (MOLT-4 leukemia) [µM]
COC(=O)C(=O)C(C(=O)C(=O)Nc1ccc(C)cc1C)c1nc2ccccc2[nH]c1=O (stereo not drawn)	> 100 µM	> 100	> 100	> 100	> 100	> 100 µM	> 100	> 100	> 100	> 100 µM										
CCc1cccc(C)c1NC(C)=O	> 100 µM	> 100	> 100	> 100	> 100	> 100 µM	> 100	> 100		> 100 µM										
COC(=O)C(=O)C(C(=O)C=C(C)C)C(=O)C(=O)Nc1ccc(Cl)cc1C (stereo not drawn)	> 100 µM	> 100	> 100	> 100	> 100	> 100 µM	> 100		> 100	> 100 µM										
Cc1cc(NS(=O)(=O)c2ccc(NC(=O)c3cccc4c(=O)c5ccccc5[nH]c34)cc2)no1	> 100 µM	89.2	> 100	> 100	50.6	> 100 µM	> 100	55.4	> 100	> 100 µM										
Cc1ccc(N=NC(C(=O)c2ccccc2)C(=O)c2ccccc2)cc1	55.4 µM	> 100	63	76	71.9	67.4 µM	41.2	54.6	86.4	40.6 µM										
CC(=O)SCCC1c2[nH]c3ccccc3c2CCN1O (stereo not drawn)	> 100 µM	> 100	> 100	> 100	> 100	> 100 µM	> 100		> 100											
Cc1cc(C2CCCCC2)n(O)c(=O)c1	> 100 µM and 65.6 µM	> 100	> 100	> 100	40	46.8 µM	> 100	35.8	> 100	> 100 µM	10.5	0.913	2.37	2.2						
Cc1cccc(N2C(=O)C(Cl)=C(Cl)C2=O)c1	> 100 µM	> 56.3	> 75.8	> 60.7	> 100	> 78.9 µM	> 100	> 100	> 100	> 100 µM										
CCC1(O)C(=O)OCc2c1cc1n(c2=O)Cc2cc3c(N)cccc3nc2-1 (stereo not drawn)	3.43 µM	4.71	0.014	> 56.4	0.0748	0.879 µM	1.29	1.85	26.1	0.0597 µM					0.307	27.9				
CN(C)C(=S)SN(C)C(=O)Nc1ccccc1	> 100 µM	> 100	85.8	> 100	> 100	> 100 µM	> 31.6		> 100	> 92.4 µM										
Cc1ccc(NC(=O)C2C(=O)N(c3ccc(C)c(C)c3)C(=O)/C2=N/O)cc1C (stereo not drawn)	> 100 µM	> 100	> 100	> 100	> 100	> 100 µM		> 100	> 100	> 100 µM										
O=C(CC(=O)N1N=C(c2ccccc2)C(N=Nc2ccc(Cl)cc2)C1=O)Nc1ccccc1Cl (stereo not drawn)	88.6 µM	> 100	> 100	> 100	40.6	> 100 µM	> 100	89.7	61	62.6 µM										
COC(=O)c1cc2c(c(C(=O)OC)c1O)C(=O)C=CC2=O	> 100 µM	9.1	> 21.5	> 46.1	> 93.4	> 9.1 µM and 5.6 µM	> 58.5	> 100	> 60.7	> 9.1 µM and 34.7 µM	> 100	> 9.1	> 9.1	18.5	4.16	1790	> 9.1	> 9.1	37.8	
Nc1c(-c2ccc(Br)cc2)[n+]([O-])c2ccccc2[n+]1[O-]	> 100 µM	> 100	> 100	> 100	> 100	78.3 µM			> 100	> 100 µM										
O=C(/C=C/c1ccccc1Cl)c1ccccc1Cl		32	60	33.4	> 100	44.7 µM	61		32.8	> 100 µM										
Cc1ccc(C(=O)/C=C/c2ccccc2O)c(C)c1	> 100 µM	> 100	> 100	> 100	> 100	> 100 µM	3.07		> 100	> 100 µM										
N#CCCN(CCC#N)c1ccc(/C=C2\N=C(CN3C(=O)c4ccccc4C3=O)OC2=O)cc1	> 100 µM	> 100	> 100		> 100	> 100 µM	> 100	> 100	> 100	> 100 µM										
CC(=O)c1ccc(NC(=O)/C(Cc2ccccn2)=N/NC(=O)C[N+](C)(C)C)cc1	> 100 µM	> 100	> 100	> 100	> 100	> 100 µM	> 100		> 100	> 100 µM										
CC(C)=[CH][Sb]([Br])([CH]=C(C)C)([CH]=C(C)C)[CH]=C(C)C	> 100 µM	> 100	> 100	> 100	> 100	38.4 µM	> 100	> 100	89.4		15.4	40.3	14.7		6.58	781	37.3	6.14	16.4	18.8
Cc1cccc(C(C)(C)C)c1NC(=O)CCc1n[nH]c(=S)o1		> 100	> 100	> 100	> 100	51.6 µM	> 100		> 100	0.832 µM										
